For one assay, the target named is Beta-galactosidase (Escherichia coli, UniProt Q8VNN2). Kind of assay: detection-enzyme interference by beta-gal modulators – biochemical, E. coli enzyme, set 3, artefact control for CCR6 antagonist project, dose response (AID 504712). The class given is functional.
In assay [1] the target is C-C chemokine receptor type 6 (Homo sapiens, UniProt P51684). Put plainly: antagonism of CCR6 beta-arrestin recruitment – cell-based, luminescent beta-arrestin readout, dose response (AID 504728). The class given is functional. In general terms: Recruitment of arrestin is a read-out of receptor activation apart from second messengers.
Assay [2] has as its target Heat shock protein HSP 90-alpha (Homo sapiens, UniProt P07900). The class given is functional, organism-based.
The target in the next assay is HSP90 (Plasmodium falciparum 3D7, UniProt Q8IL32). The class given is functional, organism-based.
Assay [3] deals with 3-phosphoinositide-dependent protein kinase 1 (Homo sapiens, UniProt O15530). The class given is functional.
Assay [4] concerns the target Protein kinase C zeta type (Homo sapiens, UniProt Q05513). The class given is functional.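 Note: measured as one member of a broad kinase profiling panel.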
Assay [5] has as its target ALK tyrosine kinase receptor (Homo sapiens, UniProt Q9UM73). The class given is functional.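 Note: ALK tested as one member of a kinase panel screen.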
In another assay the target is Wee1-like protein kinase (Homo sapiens, UniProt P30291). Put plainly: Navigating the Kinome. Panel member name: WEE1. The class given is functional.
For assay [6], the target named is Cyclin-dependent kinase 19 (Homo sapiens, UniProt Q9BWU1). Put plainly: Navigating the Kinome. Panel member name: CDC2L6. The format is functional.
Assay [7] addresses Glycogen synthase kinase-3 alpha (Homo sapiens, UniProt P49840). Kind of assay: Inhibition of Human GSK-3 alpha Activity Measured in Biochemical System Using Microfluidics - 2063-06_Inhibitor_Dose_DryPowder_Activity_Set2. [Related pubchem assays (depositor defined):AID2709].
Assay [8] concerns the target Cyclin-dependent kinase 5/CDK5 activator 1 (Homo sapiens, UniProt Q00535). Kind of assay: human CDK5 activity blockade – biochemical, microfluidic mobility shift, dry powder, selectivity assay for GSK-3 alpha inhibitor project, dose response (AID 588430).
Assay [9] concerns the target T1, Glycogen synthase kinase-3 beta (Homo sapiens, UniProt P49841). Put plainly: Inhibition of Human GSK-3 beta Activity Measured in Biochemical System Using Microfluidics - 2063-05_Inhibitor_Dose_DryPowder_Activity_Set2. [Related pubchem assays (depositor defined):AID2709].
The target of assay [10] is DNA dC->dU-editing enzyme APOBEC-3A (Homo sapiens, UniProt P31941). Kind of assay: SAR analysis of small molecule inhibitors of APOBEC3A DNA Deaminase via a fluorescence-based single-stranded DNA deaminase assay. The class given is functional. The settings on record: read-out: IC50_Mean.
The target in assay [11] is DNA dC->dU-editing enzyme APOBEC-3G (Homo sapiens, UniProt Q9HC16). Put plainly: inhibition of APOBEC3G ssDNA deamination – biochemical, fluorescence, single-stranded DNA substrate, SAR follow-up (AID 602136). The format is functional. The settings on record: read-out: IC50_Mean.
For assay [12], the target named is Cyclin-dependent kinase 5 (Homo sapiens, UniProt Q00535). The format is functional.
In assay [13] the target is Cyclin-dependent kinase 2 (Homo sapiens, UniProt P24941). The format is functional.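 Note: CDK2 measured as one member of a broad kinome profiling panel.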
Assay [14] concerns the target Cyclin-dependent kinase 1 (Homo sapiens, UniProt P06493). The format is functional.
In assay [15] the target is Serine/threonine-protein kinase Chk2 (Homo sapiens, UniProt O96017). The format is functional.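 Note: CHEK2 entry within a kinome-wide screening panel.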
Assay [16] concerns the target MAP kinase-activated protein kinase 3 (Homo sapiens, UniProt Q16644). The format is functional.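 Note: value comes from a kinome-wide profiling panel in which MAPKAPK3 is one of the panel members.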
Assay [17] addresses Casein kinase I isoform delta (Homo sapiens, UniProt P48730). The format is functional.
Assay [18] addresses T2, Phospholipase D2 (Homo sapiens, UniProt O14939). Kind of assay: cellular phospholipase D2 inhibition IC50 – cell-based, dose response (AID 602147).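 Note: cellular assay in HEK293 cells overexpressing GFP-tagged PLD2.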 The class given is functional.
The target in assay [19] is T3, Phospholipase D1 (Homo sapiens, UniProt Q13393). Put plainly: PLD1 purified enzyme concentration response. [Related pubchem assays (depositor defined):AID588854]. The format is functional.
Assay [20] has as its target T3, Phospholipase D1. Kind of assay: cellular phospholipase D1 inhibition IC50 – cell-based, dose response (AID 602151).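 Note: cellular PLD1 assay in Calu-1 cells stimulated with PMA.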 The format is functional.
The target of assay [21] is T2, Phospholipase D2. Kind of assay: PLD2 purified enzyme concentration response. [Related pubchem assays (depositor defined):AID588854]. The class given is functional.
The target of assay [22] is Cell division cycle 7-related protein kinase (Homo sapiens, UniProt O00311). The class given is functional.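 Note: value obtained from a kinome-wide kinase panel.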
In assay [23] the target is cAMP-dependent protein kinase catalytic subunit alpha (Homo sapiens, UniProt P17612). The class given is functional.
For assay [24], the target named is Homeodomain-interacting protein kinase 2 (Homo sapiens, UniProt Q9H2X6). The class given is functional.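 Note: measured within a kinome-wide kinase profiling panel, HIPK2 being one panel member.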
The target of assay [25] is Mitogen-activated protein kinase kinase kinase kinase 4 (Homo sapiens, UniProt O95819). The class given is functional.
The target in assay [26] is T1, Glycogen synthase kinase-3 beta. The format is functional.
Assay [27] concerns the target Serine/threonine-protein kinase pim-1 (Homo sapiens, UniProt P11309). The format is functional.
Assay [28] has as its target Interleukin-1 receptor-associated kinase 4 (Homo sapiens, UniProt Q9NWZ3). The format is functional.

Structures are written as SMILES. Activity calls are given as the source filed them. Some results are limits rather than exact numbers.

T3 sequence (Q13393 whole entry): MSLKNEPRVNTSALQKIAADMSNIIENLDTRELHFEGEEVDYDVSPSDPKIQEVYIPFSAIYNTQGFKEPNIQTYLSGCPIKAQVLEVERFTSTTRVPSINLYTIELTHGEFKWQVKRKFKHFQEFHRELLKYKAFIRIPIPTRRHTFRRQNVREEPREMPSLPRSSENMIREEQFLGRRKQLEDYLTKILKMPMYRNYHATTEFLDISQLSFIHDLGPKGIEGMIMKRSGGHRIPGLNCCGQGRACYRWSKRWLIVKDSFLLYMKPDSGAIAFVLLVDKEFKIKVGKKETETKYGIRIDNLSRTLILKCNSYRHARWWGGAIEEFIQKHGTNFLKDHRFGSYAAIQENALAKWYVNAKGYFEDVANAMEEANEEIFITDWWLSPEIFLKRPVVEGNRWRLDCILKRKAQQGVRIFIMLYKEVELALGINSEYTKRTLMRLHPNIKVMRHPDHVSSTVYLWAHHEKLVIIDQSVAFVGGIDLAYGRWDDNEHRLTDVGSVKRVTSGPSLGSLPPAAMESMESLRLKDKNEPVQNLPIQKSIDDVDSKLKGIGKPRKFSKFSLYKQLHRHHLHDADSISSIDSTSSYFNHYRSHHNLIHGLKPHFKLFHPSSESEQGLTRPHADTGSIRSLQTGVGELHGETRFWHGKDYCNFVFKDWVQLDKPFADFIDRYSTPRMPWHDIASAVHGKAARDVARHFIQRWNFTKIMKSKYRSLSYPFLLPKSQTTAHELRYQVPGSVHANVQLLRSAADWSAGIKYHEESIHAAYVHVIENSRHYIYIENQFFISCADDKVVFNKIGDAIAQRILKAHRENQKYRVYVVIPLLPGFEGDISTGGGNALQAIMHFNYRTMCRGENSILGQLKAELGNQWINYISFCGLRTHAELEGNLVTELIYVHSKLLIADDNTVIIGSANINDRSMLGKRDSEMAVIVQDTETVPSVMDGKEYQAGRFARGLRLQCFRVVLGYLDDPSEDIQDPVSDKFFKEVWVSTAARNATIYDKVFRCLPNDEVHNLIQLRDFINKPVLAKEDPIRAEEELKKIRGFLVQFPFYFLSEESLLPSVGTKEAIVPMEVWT
T1 sequence (P49841 whole entry): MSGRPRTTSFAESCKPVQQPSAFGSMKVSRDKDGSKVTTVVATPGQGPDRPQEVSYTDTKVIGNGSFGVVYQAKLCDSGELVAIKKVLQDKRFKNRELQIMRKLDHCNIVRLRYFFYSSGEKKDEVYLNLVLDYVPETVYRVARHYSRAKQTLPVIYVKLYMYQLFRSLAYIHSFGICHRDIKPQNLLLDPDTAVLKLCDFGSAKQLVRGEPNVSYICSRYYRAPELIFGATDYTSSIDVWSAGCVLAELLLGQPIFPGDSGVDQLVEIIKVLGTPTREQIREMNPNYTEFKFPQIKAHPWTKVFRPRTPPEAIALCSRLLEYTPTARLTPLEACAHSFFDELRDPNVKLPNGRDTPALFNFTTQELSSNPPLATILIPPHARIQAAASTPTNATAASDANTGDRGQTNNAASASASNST
Chain of ALK tyrosine kinase receptor (Q9UM73 whole entry): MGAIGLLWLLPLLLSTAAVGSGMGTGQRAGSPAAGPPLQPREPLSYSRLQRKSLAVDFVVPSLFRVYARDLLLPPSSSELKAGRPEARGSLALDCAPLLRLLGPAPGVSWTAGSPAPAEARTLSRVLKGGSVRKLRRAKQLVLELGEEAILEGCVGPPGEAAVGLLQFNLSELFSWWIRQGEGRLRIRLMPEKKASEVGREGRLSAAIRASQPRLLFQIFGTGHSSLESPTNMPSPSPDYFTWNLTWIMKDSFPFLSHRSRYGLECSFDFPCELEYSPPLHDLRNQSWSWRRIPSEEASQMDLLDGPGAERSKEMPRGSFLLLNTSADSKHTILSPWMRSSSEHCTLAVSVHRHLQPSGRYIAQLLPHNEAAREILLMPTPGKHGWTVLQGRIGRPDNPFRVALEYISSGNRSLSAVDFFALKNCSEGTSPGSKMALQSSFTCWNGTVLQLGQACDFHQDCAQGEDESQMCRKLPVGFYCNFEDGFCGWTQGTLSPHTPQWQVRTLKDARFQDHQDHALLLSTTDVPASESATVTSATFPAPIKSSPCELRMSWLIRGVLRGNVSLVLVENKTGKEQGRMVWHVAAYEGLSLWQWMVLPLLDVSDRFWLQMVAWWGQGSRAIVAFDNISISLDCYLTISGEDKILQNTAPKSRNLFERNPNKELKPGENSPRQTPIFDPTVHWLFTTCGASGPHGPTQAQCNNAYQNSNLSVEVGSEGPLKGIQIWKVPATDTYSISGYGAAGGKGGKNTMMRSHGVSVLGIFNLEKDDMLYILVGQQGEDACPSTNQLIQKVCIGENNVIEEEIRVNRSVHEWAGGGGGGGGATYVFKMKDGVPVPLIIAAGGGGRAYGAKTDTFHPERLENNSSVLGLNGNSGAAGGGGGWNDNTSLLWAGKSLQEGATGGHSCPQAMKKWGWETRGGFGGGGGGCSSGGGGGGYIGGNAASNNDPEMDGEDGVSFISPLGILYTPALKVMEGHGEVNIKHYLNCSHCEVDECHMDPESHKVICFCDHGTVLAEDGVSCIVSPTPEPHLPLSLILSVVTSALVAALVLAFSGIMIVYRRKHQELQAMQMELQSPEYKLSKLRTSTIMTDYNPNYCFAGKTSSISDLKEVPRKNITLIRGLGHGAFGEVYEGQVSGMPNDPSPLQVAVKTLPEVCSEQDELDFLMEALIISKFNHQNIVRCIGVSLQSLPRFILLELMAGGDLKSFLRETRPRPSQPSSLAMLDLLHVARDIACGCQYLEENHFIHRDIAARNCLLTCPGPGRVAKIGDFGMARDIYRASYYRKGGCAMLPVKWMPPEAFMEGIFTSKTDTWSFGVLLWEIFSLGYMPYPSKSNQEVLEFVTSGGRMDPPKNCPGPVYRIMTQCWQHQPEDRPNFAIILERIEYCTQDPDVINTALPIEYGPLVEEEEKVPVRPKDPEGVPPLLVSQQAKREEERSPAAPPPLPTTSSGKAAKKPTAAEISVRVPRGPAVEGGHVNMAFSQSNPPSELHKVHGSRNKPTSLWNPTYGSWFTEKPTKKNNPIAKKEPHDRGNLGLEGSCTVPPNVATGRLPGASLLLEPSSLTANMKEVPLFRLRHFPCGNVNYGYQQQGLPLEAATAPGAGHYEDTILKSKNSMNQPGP
T2 sequence (O14939 whole entry): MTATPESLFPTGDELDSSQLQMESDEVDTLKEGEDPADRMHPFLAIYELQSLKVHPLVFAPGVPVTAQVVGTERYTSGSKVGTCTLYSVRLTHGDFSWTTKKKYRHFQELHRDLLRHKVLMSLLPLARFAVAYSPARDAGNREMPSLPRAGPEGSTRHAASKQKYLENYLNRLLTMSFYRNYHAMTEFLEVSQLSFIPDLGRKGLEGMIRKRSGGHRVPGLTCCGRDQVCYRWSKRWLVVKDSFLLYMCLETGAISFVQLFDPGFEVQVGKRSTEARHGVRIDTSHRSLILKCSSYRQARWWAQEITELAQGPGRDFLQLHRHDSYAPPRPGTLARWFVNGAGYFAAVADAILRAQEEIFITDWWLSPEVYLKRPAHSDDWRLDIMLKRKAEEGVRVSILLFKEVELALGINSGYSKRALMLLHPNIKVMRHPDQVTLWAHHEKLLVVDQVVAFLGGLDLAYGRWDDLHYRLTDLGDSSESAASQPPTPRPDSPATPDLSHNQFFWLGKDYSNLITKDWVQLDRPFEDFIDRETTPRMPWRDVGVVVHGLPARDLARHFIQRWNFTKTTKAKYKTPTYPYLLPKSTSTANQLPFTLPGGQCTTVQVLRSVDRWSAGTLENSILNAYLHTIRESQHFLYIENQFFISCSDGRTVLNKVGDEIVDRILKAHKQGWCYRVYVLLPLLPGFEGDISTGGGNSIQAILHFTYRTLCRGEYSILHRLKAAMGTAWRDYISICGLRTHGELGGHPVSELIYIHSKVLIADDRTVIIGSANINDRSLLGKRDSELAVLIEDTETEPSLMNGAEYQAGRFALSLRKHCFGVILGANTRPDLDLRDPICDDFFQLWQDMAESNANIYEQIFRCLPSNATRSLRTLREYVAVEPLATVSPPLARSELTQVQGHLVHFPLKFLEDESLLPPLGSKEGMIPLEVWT
Chain of MAP kinase-activated protein kinase 3 (Q16644 whole entry, canonical isoform): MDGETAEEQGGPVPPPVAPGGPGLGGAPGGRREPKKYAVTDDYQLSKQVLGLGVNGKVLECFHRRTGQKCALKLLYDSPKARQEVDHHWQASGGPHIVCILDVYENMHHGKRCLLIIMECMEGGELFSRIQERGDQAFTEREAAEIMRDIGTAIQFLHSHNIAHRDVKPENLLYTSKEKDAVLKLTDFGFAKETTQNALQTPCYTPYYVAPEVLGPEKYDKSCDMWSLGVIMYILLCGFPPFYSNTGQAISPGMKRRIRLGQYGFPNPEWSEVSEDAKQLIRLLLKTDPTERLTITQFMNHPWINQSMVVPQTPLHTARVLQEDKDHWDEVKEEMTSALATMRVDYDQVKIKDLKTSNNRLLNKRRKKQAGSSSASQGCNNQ
Chain of C-C chemokine receptor type 6 (P51684 whole entry): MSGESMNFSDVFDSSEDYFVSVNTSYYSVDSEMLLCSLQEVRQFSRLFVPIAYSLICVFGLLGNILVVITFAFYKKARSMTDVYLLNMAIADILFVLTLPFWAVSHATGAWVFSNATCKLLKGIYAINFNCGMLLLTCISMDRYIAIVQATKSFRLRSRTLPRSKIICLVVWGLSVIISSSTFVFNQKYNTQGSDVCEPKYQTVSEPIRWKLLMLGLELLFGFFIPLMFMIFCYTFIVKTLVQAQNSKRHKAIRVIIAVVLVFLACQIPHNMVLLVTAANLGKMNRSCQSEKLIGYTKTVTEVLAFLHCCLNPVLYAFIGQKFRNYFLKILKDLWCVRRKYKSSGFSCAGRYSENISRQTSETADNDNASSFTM
Chain of DNA dC->dU-editing enzyme APOBEC-3A (P31941 whole entry): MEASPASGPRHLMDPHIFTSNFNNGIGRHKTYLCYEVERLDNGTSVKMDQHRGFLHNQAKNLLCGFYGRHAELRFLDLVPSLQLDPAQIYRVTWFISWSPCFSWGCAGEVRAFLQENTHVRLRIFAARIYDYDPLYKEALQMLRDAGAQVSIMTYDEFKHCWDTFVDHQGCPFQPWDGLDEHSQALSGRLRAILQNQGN

For the molecule `Oc1ccc(Cl)c2cccnc12` [CLOXYQUIN], the IC50 (on Beta-galactosidase; in assay [1]) was > 66.6 µM (inactive) in each case. Moreover, the AC50 is 6.15 µM (active) in assay [2] and 8.36 µM (active) at HSP90.

Turning to `O=C(NCc1ccc(Br)cc1)c1cnn2c(-c3ccccc3)ccnc12`, the Ki in assay [3] and in assay [4] was 2.51 µM (active) each time.

On to `CCN1CCN(c2ccc(Nc3ncc(C)c(Nc4ccc5[nH]ncc5c4)n3)cc2)CC1`, for which the Ki in assay [5] is 0.0398 µM (active); at Wee1-like protein kinase, 0.0158 µM (active).

As to `COc1ccccc1Nc1nc(Nc2cnn(C)c2)ncc1Br`, the figures for the Ki in [5] and in assay [6] were 1 µM (active) and 5.01 µM (active), respectively.

For `Nc1nonc1-n1nnc(C(=O)N/N=C/c2ccccc2F)c1-c1cccs1`, the AC50 in [7] is 0.422 µM (active); in [8], 9.28 µM (active); in assay [9], 0.325 µM (active).

Consider `c1ccc2c(c1)OCC(c1nnc3c4c5c(sc4ncn13)CCCC5)O2` (configuration not stated), for which the IC50 in assay [10] and in assay [11] was > 99 µM (inactive) throughout.

For the molecule `Cc1c(NC2CCC(N)CC2)nc2ccnn2c1Nc1ccc(F)c(Cl)c1` (configuration not stated), the Ki in assay [12] was 10 µM (active); in assay [13], 7.94 µM (active); in assay [14] it was 7.94 µM (active); in [15], 3.98 µM (active); in assay [16], 2 µM (active); in [17] it was 3.98 µM (active).

Turning to `C[C@@H](CN1CCC(n2c(=O)[nH]c3ccccc32)CC1)NC(=O)COc1ccccc1`, the IC50 at Phospholipase D2 [18] is 3.8 µM (active); on Phospholipase D1 [19], 0.057 µM (active); on Phospholipase D1 [20], 0.002 µM (active); at Phospholipase D2 [21], 5.8 µM (active).

Turning to `OCCCCNc1cc(-c2c[nH]c3ncccc23)cc(Cl)n1`, the Ki in assay [22] was 0.000794 µM (active); in assay [23] it was 0.251 µM (active); in assay [24], 0.0251 µM (active); in assay [25], 0.00316 µM (active); in [26], 0.1 µM (active); in assay [27], 0.501 µM (active). Also, the Ki in [28] is 5.01 µM (active).

What is called AC50 is the midpoint of the concentration-response curve, whichever way the signal moves. In general, Ki refers to the dissociation constant of the complex between target and ligand, obtained from inhibition or displacement.

These data come from ChEMBL document CHEMBL1201862, “PubChem BioAssay data set” (2004).
